US20260217768A1, “NANOPARTICLE-NHE3 PEPTIDE TO TREAT DIARRHEA” (The Johns Hopkins University, priority 2023, published 2026)

Experiments:
mouse jejunum = conditions: in vivo
mouse ileal loops [1] = experiment: CTx-induced fluid secretion in closed mouse ileal loops, nanoparticle-conjugated peptides; format: in vivo
Method: (§1) All in vivo studies were performed on 8-12 week old C57B1/6N mice anesthetized with isofluorane and kept at 37° C. via heating lamps and rectal thermal probes.
(§2) Effect on basal fluid transport and effect of Tenapanor. Mice operated on as above had 3-4 cm closed ileal loops inoculated with 150-μL PBS containing 400-nM nanoparticle-CP-2 or -N3SP-1Δ7. After 4 h, the loops were drained and inoculated with 150-μL PBS. 30 min later, the animals were sacrificed and loop weight/length determined. In parallel studies, Tenapanor (10 μM) was present in both incubation periods. Similar to the BODIPY-conjugated peptide studies, the effects of nanoparticle-CP-2 or N3SP-1Δ7 (4 μM) compared to PBS alone were determined on net fluid secretion produced by inoculation of 0.1-μg CTx. The nanoparticle-peptides plus 0.1-μg CTx in 150-μL PBS were inoculated in 3-4 cm long closed ileal loops. Additional controls included loops exposed only to 150-μL PBS and those only exposed to the CTx/PBS. 4 h later, the animals were sacrificed and loop weight/cm length was determined.

mouse ileal loops [2] = experiment: Basal fluid absorption in closed mouse ileal loops, nanoparticle-conjugated peptides, with or without Tenapanor; format: in vivo; conditions: for residual fluid / fluid absorption in closed ileal loops compared to CP2: nanoparticle conjugated peptide 400 nM for 4 h, then 150-μL PBS for 30 min
Method: as §1, §2

NHE3 = experiment: Effect of N-terminal truncations of N3SP-1 on NHE3 activity in human enteroids (BCECF-fluorometry); format: cell-based; conditions: human duodenal enteroids, Hill equation
Method: NHE3 activity in PS120, Caco-2/BBe cells and human jejunal enteroids was determined fluorometrically (Photon Technologies Incorporated) using the intracellular pH sensitive dye BCECF, as reported (Levine et al., 1993; Sarker et al., 2008; Foulke-Abel et al., 2020). PS120/HA3-NHE3 cells were seeded on glass cover slips and studied at 70-80% confluency. Caco-2/BBe/HA3-NHE3 cells were grown to confluency on Transwell inserts (polyester, 0.4-μm pore size) and studied approximately 14-16 days pod. Human duodenal enteroid monolayers on Transwell inserts were differentiated for 5 days in the absence of Wnt3a, R-spondin, and noggin as described (Noel et al., 2017; Staab et al., 2020).
Rates of Na^+/H^+ exchange were determined as Na^+-dependent alkalinization in the presence of 50-μM HOE-694 (to inhibit all other plasma membrane NHE isoforms) in HCO3-free solutions, with internal calibration using the nigericin/K+ method, as previously described (Sarker et al., 2008; Foulke-Abel et al., 2020). Kinetic analysis was used for PS120 cell studies (expressed as Vmax) and initial rates (ΔpH/min) for Caco-2/BBe cells, mouse intestine in vitro, and human enteroids. For in vitro mouse jejunal transport studies, NHE3 activity (in the presence of 50-μM HOE-694) was measured using SNARF-4F at 37° C. in a perfusion chamber using a two-photon microscope (Olympus FV1000) and 25× objective, as described (Murtazina et al., 2011).
Concentration dependent effects on NHE3 basal activity was determined using BCECF-fluorometry. Kinetic analysis was determined of extent of stimulation of basal NHE3 activity; analysis was by use of the Hill equation.
Given the ability of N3SP-1Δ7 to prevent CTx-induced fluid secretion in vivo (FIG. 3E) and to stimulate basal NHE3 activity and prevent cAMP inhibition in human enteroids (FIG. 4C), further studies were carried out with human enteroids to determine the shortest N3SP-1-related peptide that would stimulate human NHE3. A series of N3SP-1 N-terminal truncations was synthesized and concentration-dependent stimulation of NHE3 activity determined using human jejunal enteroids.

[3] = biological target: NHERF2 binding to NHE3 C-terminal peptides (Homo sapiens, UniProt Q15599); experiment: NHE3 peptide-NHERF2 overlay assay; conditions: peptide at 5 times the concentration of NHERF2 and MBP-NHE3 fusion peptides, n=5
Chain of NHERF2 binding to NHE3 C-terminal peptides (Q15599 whole entry, the tested form may be a part): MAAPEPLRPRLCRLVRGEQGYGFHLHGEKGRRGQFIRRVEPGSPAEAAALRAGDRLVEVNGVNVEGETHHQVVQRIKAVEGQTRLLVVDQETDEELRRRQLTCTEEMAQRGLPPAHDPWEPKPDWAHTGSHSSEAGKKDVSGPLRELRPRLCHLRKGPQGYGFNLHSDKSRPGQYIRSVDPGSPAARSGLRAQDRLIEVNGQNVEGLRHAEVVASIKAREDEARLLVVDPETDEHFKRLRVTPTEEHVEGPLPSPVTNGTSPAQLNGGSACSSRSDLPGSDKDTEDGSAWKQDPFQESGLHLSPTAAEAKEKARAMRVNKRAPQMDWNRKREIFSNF
Method: Two NHE3 C-terminal peptides containing the N3SP-1 sequence were separated on SDS-Page gradient gels and purified NHERF binding determined. Equal concentrations of NHE3 peptides and NHERF2 were used. Prior to NHERF2 addition, the blots were overlayed with 5× the concentration of N3SP-1Δ7 vs CP2.
Binding of purified full-length GST-NHERF2 to two NHE3 C-terminal peptides that contain the N3SP-1 sequence was determined in the presence of equal concentrations of CP-2 compared to N3SP-1Δ7. CP-2 and N3SP-1Δ7 peptides were used at 5 times the concentration of the NHERF2 fusion protein and the MBP-NHE3 fusion peptides.

[4] = system: differentiated human enteroid monolayers; experiment: Nanoparticle-peptide uptake in human enteroid monolayers (confocal microscopy); format: cell-based; conditions: apical addition, 2 μM, 4 h uptake, differentiated human enteroids
Method: […] After varying times from 15 min to 4 hours, enteroids were washed three times with PBS to remove extracellular nanoparticles and wells were replenished with fresh serum-containing media.
At varying times after nanoparticle addition up to overnight, enteroids were serum-starved for 2 hours then fixed in 4% paraformaldehyde for 30 minutes. After washing with PBS, formaldehyde was neutralized with 20-mM glycine. Enteroids were then permeabilized in 0.1% saponin, 1% BSA for 30 minutes. Fixed and permeabilized enteroids were stained for biotinylated peptide using streptavidin conjugated AlexaFluor 488 (1:100) and Hoechst stain (1:200). Enteroids were thoroughly washed with PBS and mounted onto microscope slides. Uptake was visualized using an Olympus FV3000RS confocal microscope and 40× objective (Olympus, Tokyo, Japan).

[5] = Nanoparticle characterization: hydrodynamic diameter, zeta potential, stability; format: physicochemical; conditions: CR5 with peptide, 30:1 polymer:peptide weight ratio
Method: PBAE polymer and peptide were separately dissolved in pH 7.4 150-mM PBS and combined at a 1:1 volume ratio. Final concentrations of the components were 6-ng/μL peptide and 180-ng/μL polymer (30:1 polymer: peptide weight ratio). Polymer and peptide nanoparticles were allowed to self-assemble at room temperature for 10 minutes. For characterization, nanoparticles were diluted 1:5 in PBS. Hydrodynamic diameter and zeta potential were measured using a Malvern Zetasizer Pro (Malvern Panalytical, Malvern, UK). Stability was assessed by incubating nanoparticles at RT up to 45 minutes then measuring hydrodynamic diameter over 45 minutes. Nanoparticles were made immediately prior to each experiment.

With “N3SP-1 lacking first seven N-terminal amino acids: RPSTVEASVSYLLRESASAVCLDMQSLEQRR [Peptide N3SP-1Δ7]” the “effect on CTx-stimulated net fluid secretion (loop weight/cm)” value (mouse jejunum) was “did not alter the efficacy”, the “reduction of cholera toxin induced secretion” value (mouse ileal loops [1]; mouse, in vivo) was “approximately 42%” and the “effect on CTx-induced fluid in ileal loops (loop weight/length)” value (mouse ileal loops [1]; nanoparticle-peptide 4 μM with 0.1-μg CTx, 4 hours) was “significantly less fluid”. The “residual fluid / fluid absorption in closed ileal loops compared to CP2” value (mouse ileal loops [2]) was “increased fluid absorption”, the “residual fluid / fluid absorption in closed ileal loops compared to CP2” value (mouse ileal loops [2]; listed as N3SP-147) was “significantly less amount of residual fluid” and the “residual fluid in presence of Tenapanor, CP2 vs N3SP-1Δ7” value (mouse ileal loops [2]; nanoparticle conjugated peptide 400 nM, Tenapanor (10 μM) in both incubation periods) was “no difference in residual fluid”. For the same substance, the “Stimulation of NHE3 Activity” value (NHE3; basal NHE3 activity, BCECF-fluorometry) was “YES (39%)”, the EC50 (NHE3; stimulation of basal NHE3 activity) was 156 nM and the “NHERF2 binding to NHE3 C-terminal peptides compared to control peptide CP-2” value [3] was “preferentially reduces NHERF2 binding”. The “NHERF2 binding to NHE3 C-terminal peptides compared to control peptide CP-2” value ([3]; listed as N3SP-147) was “significantly reduced NHERF2 binding”, the “uptake and location in enteroid monolayers” value [4] was “lack of uptake” and the “surface zeta potential (electrophoretic light scattering)” value [5] was 22.4±1.2 mV. The “nanoparticle diameter (DLS)” value ([5]; aqueous) was 385±30 nm.
